One series deals with T1, Serotonin reuptake (Rattus norvegicus, UniProt P31652).
T1 construct: synaptosomes are freshly isolated from areas of the rat brain; from tissue
Put plainly: Inhibition of serotonin (5HT) reuptake in rat brain synaptosomes. The class given is biochemical. Here is the method: (§1) In order to be able to carry out these in vitro studies, synaptosomes are freshly isolated from areas of the rat brain. In each case a so-called “P2” fraction prepared in accordance with the instruction of Gray and Whittaker (E. G. Gray and V. P. Whittaker (1962) J. Anat. 76, 79-88) is prepared. For the NA uptake, these vesicular particles are isolated from the hypothalamus of male rat brains.
(§2) A detailed description of the method can be found in the literature (M. Ch. Frink, H.-H. Hennies, W. Englberger, M. Haurand and B. Wilffert (1996) Arzneim.-Forsch./Drug Res. 46 (III), 11, 1029-1036).

Another series addresses T2, human μ opiate receptor (Homo sapiens, UniProt P35372).
T2 construct: purchased PerkinElmer Life Sciences, Zaventem, Belgium RB-HOM; host or cells: CHO-K1 cells (recombinant expression)
Put plainly: Affinity for the human μ opiate receptor ([3H]-naloxone displacement, CHO-K1 membrane preparation, SPA). Format: binding. Conditions: for inhibition at 1 µM / μ opioid receptor [1 μM], % inhibition: 1 μM test substance, displacement of [3H]-naloxone; for inhibition at 1 µM: read-out: μ opioid receptor [1 μM], % inhibition; for Ki: Cheng-Prusoff conversion from IC50, read-out: μ opioid receptor, Ki. The method, boiled down:
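CHO-K1 membranes expressing human μ receptor (15-40 μg protein/250 μl) were incubated 90 min at room temperature with 1 nmol/l [³H]-naloxone and WGA-SPA beads in 50 mmol/l Tris-HCl with 0.06% BSA; 100 μmol/l naloxone defined nonspecific binding. Percent displacement measured at 1 μmol/l; IC50 converted to Ki via Cheng-Prusoff.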
In general terms: In a radioligand displacement assay an active substance lowers the binding of a labelled ligand.

The next series deals with T3, Noradrenaline reuptake (Rattus norvegicus, UniProt Q63380).
T3 construct: synaptosomes are freshly isolated from areas of the rat brain; from tissue; host or cells: P2 synaptosome fraction from the hypothalamus of male rat brains
T3 sequence (Q63380 1-617): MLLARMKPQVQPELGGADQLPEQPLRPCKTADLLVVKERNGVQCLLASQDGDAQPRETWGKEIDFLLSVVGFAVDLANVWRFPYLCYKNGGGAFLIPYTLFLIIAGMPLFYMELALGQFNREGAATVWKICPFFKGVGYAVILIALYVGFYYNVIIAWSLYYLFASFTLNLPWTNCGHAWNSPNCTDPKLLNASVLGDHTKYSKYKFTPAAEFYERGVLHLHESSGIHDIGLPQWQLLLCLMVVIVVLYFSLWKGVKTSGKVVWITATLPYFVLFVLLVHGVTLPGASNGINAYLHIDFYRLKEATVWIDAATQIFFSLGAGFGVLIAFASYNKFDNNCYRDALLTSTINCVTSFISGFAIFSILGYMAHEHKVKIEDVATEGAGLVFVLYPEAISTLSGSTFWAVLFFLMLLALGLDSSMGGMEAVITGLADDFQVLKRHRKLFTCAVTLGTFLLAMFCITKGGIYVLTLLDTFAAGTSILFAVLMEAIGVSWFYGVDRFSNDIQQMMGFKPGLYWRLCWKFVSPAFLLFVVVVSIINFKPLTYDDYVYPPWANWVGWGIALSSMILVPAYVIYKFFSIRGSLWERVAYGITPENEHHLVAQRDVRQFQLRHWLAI
Put plainly: Inhibition of noradrenaline (NA) reuptake in rat brain synaptosomes. The class given is biochemical. Conditions: synaptosomes from rat hypothalamus. On the procedure: as §1, §2

Series [1] deals with phenylquinone-induced writhing in mice. Put plainly: Phenylquinone writhing. Format: in vivo. Conditions: 10 mg/kg intravenously, male NMRI mice. Here is the method: The analgesic activity was investigated in the phenylquinone-induced writhing in mice (modified in accordance with I. C. Hendershot und J. Forsaith (1959) J. Pharmacol. Exp. Ther. 125, 237-240), Male NMRI mice weighing from 25 to 30 g were used for this. Groups of 10 animals per substance dose received 0.3 ml/mouse of a 0.02% strength aqueous solution of phenylquinone (phenylbenzoquinone, Sigma, Deisenhofen; preparation of the solution with the addition of 5% ethanol and storage in a water bath at 45° C.) administered intraperitoneally 10 minutes after intravenous administration of the test substances. The animals were placed individually in observation cages. The number of pain-induced stretching movements (so-called writhing reactions=straightening of the body with stretching of the rear extremities) was counted by means of a push-button counter 5 to 20 minutes after the administration of phenylquinone. Animals which receive only 5% strength Cremophor solution were also run as a control. All the substances were tested in the standard dosage of 10 mg/kg. The percentage inhibition (% inhibition) of the writhing reaction by a substance was calculated according to the following formula: […]

Structures can show the parent of a compound that is named as a salt.

The inhibition is the relative decrease from the control value, in per cent. As usually defined, the Ki is a dissociation constant, usually derived from enzyme kinetics or from competition with a known ligand. The term melting point denotes the temperature of the solid-liquid transition.

T2 sequence (P35372 whole entry): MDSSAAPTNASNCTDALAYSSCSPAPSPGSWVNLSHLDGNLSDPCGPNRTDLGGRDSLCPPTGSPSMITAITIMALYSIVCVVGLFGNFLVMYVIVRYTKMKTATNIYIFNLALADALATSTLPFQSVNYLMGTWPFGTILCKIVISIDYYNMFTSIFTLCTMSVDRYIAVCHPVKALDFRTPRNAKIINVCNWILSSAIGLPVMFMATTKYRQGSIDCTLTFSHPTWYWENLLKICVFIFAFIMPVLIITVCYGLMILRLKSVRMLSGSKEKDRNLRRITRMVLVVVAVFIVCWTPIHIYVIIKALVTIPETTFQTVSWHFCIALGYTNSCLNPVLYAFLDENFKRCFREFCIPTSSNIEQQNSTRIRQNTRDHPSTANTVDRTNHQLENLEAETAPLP
T1 sequence (P31652 whole entry): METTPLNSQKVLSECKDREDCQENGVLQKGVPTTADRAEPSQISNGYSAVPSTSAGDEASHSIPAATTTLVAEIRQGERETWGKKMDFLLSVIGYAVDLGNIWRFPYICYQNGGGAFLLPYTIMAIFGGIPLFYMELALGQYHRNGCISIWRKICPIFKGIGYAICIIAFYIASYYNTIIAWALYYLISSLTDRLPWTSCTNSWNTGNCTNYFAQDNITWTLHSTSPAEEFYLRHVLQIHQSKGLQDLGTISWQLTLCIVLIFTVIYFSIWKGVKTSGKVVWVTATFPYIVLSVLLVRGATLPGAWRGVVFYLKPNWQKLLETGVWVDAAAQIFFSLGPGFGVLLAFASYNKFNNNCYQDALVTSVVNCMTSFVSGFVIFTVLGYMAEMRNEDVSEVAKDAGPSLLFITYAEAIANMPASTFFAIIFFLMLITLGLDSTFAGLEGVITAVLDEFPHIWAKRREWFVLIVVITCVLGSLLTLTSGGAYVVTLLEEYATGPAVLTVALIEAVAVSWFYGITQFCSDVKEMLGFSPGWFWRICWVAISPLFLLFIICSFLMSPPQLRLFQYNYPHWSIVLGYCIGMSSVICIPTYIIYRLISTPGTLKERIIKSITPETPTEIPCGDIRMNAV

`CN(C)C(c1cccc(F)c1)C1CCC2(CC1)OCCc1c2[nH]c2ccccc12` (stereo not drawn) [Compound 26, 1,1-[3-(Dimethylamino-(3-fluorophenyl)-methyl)-pentamethylene]-1,3,4,9-tetrahydro-pyrano[3,4-b]indole Citrate] displayed an inhibition at 10 µM against Serotonin reuptake of 59%. Moreover, at human μ opiate receptor, the inhibition at 1 µM was 94% and the Ki is 33 nM. Moreover, the inhibition at 10 µM against Noradrenaline reuptake was 49%.
In the case of `CN(C)C(c1ccccc1)C1CCC2(CC1)OCCc1c2[nH]c2ccccc12` (stereo not drawn) [Compound 27, 1,1-[3-(Dimethylamino-(phenyl)-methyl)-pentamethylene]-1,3,4,9-tetrahydropyrano[3,4-b]indole Citrate], the inhibition at 10 µM came out at 73% at Serotonin reuptake and 64% on Noradrenaline reuptake. For the same compound, the inhibition at 1 µM at human μ opiate receptor amounted to 99%. Also, at human μ opiate receptor, the inhibition constant (Ki) came to 26 nM. The “% inhibition of the writhing reaction (dosage in mg/kg intravenously)” value (from here on “% inhibition of the writhing reaction”) in series [1] is 53 (10) %.
Turning to `CN(C)C(c1cccs1)C1CCC2(CC1)NCCc1c2[nH]c2ccccc12` (stereo not drawn) [Compound 21, 1,1-[3-(Dimethylamino-(thiophen-2-yl)-methyl)-pentamethylene]-3,4-dihydro-1H-2,9-diazafluorene], at Serotonin reuptake, the “Serotonin reuptake, % inhibition [10 μM]” value is recorded as 72%. Further, the “μ opioid receptor [1 μM], % inhibition” value at human μ opiate receptor is 62%. Further, on Noradrenaline reuptake, the “Noradrenaline reuptake, % inhibition [10 μM]” value worked out at 50%.
`CN(C)C(c1cccs1)C1CCC2(CC1)OCCc1c2[nH]c2ccccc12` (stereo not drawn) [Compound 29, 1,1-[3-(Dimethylamino-(thiophen-2-yl)-methyl)-pentamethylene]-1,3,4,9-tetrahydro-pyrano[3,4-b]indole] yielded an inhibition at 10 µM at Serotonin reuptake of 45%. Besides, on human μ opiate receptor, the inhibition at 1 µM was 99% and the Ki was 15 nM. For the same compound, the “% inhibition of the writhing reaction” value in series [1] is 73 (10) %.
On to `CN(C)C(CCc1ccccc1)C1CCC2(CC1)NCCc1c2[nH]c2ccccc12` (stereo not drawn) [Compound 20, 1,1-[3-(Dimethylamino-(phenylethyl)-methyl)-pentamethylene]-3,4-dihydro-1H-2,9-diazafluorene Citrate], for which the inhibition at 10 µM against Serotonin reuptake came to 84%. For the same compound, on human μ opiate receptor, the inhibition at 1 µM turned out to be 97% and the inhibitory constant (Ki) came to 34 nM. On Noradrenaline reuptake, the inhibition at 10 µM worked out at 91%. The “% inhibition of the writhing reaction” value in series [1] is given as 45 (10) %.
The compound `CN(C)C(c1ccc(F)cc1)C1CCC2(CC1)OCCc1c2[nH]c2ccc(F)cc12` (stereo not drawn) [Compound 35, 6-Fluoro-1,1-[3-(dimethylamino-(4-fluorophenyl)-methyl) -pentamethylene]-1,3,4,9-tetrahydropyrano[3,4-b]indole] returned an inhibition at 10 µM against Serotonin reuptake of 55%. In addition, on human μ opiate receptor, the inhibition at 1 µM amounted to 98% and the Ki is 67 nM. The inhibition at 10 µM on Noradrenaline reuptake turned out to be 50%.
With `CN(C)C(c1ccc(Cl)cc1)C1CCC2(CC1)OCCc1c2[nH]c2ccc(F)cc12` (stereo not drawn) [Compound 38, 6-Fluoro-1,1-[3-(dimethylamino-(4-chlorophenyl)-methyl)-pentamethylene]-1,3,4,9-tetrahydropyrano[3,4-b]indole], the inhibition at 10 µM against Serotonin reuptake stood at 57%. Besides, on human μ opiate receptor, the inhibition at 1 µM amounted to 84% and the Ki was found to be 260 nM. The inhibition at 10 µM at Noradrenaline reuptake stood at 59%.
On to `CN(C)C(CCc1ccccc1)C1CCC2(CC1)OCCc1c2[nH]c2ccccc12` (stereo not drawn) [Compound 28, 1,1-[3-(Dimethylamino-(phenylethyl)-methyl)-pentamethylene]-1,3,4,9-tetrahydropyrano[3,4-b]indole], for which the inhibition at 10 µM against Serotonin reuptake was 57%; against Noradrenaline reuptake, 52%. Besides, the inhibition at 1 µM on human μ opiate receptor worked out at 92%. Further, the Ki on human μ opiate receptor amounted to 110 nM.
For `CC1Cc2c([nH]c3ccc(F)cc23)C2(CCC(C(c3ccccc3)N(C)C)CC2)O1` (stereo not drawn) [Compound 53, 6-Fluoro-3-methyl-1,1-[3-(dimethylamino-(phenyl)-methyl) -pentamethylene]-1,3,4,9-tetrahydropyrano[3,4-b]indole], in that order: 60%, 47%, 97% and 82 nM.
On to `Cc1ccc2[nH]c3c(c2c1)CC(C)OC31CCC(C(c2cccc(F)c2)N(C)C)CC1` (stereo not drawn) [Compound 41, 3,6-Dimethyl-1,1-[3-(dimethylamino-(3-fluorophenyl)-methyl) -pentamethylene]-1,3,4,9-tetrahydropyrano[3,4-b]indole], for which, at human μ opiate receptor, the inhibition at 1 µM amounted to 88% and the Ki was 300 nM. Besides, the “% inhibition of the writhing reaction” value in series [1] was 40 (10) %.
The compound `Cc1ccc2[nH]c3c(c2c1)CC(C)OC31CCC(C(c2ccccc2)N(C)C)CC1` (stereo not drawn) (as salt: citrate) [Compound 42, 3,6-Dimethyl-1,1-[3-(dimethylamino-(phenyl)-methyl)-pentamethylene]-1,3,4,9-tetrahydropyrano[3,4-b]indole Citrate] had a melting point of 245 to 250 °C.
In the case of `CN(C)C(c1ccc(F)cc1)C1CCC2(CC1)NCCc1c2[nH]c2ccccc12` (stereo not drawn) [Compound 17, 1,1-[3-(Dimethylamino-(4-fluorophenyl)methyl)-pentamethylene]-3,4-dihydro-1H-2,9-diazafluorene], the “Serotonin reuptake, % inhibition [10 μM]” value at Serotonin reuptake is on record as 83%. In addition, the “μ opioid receptor [1 μM], % inhibition” value at human μ opiate receptor came out at 46%. Also, the “% inhibition of the writhing reaction” value in series [1] is given as 52 (10) %.
With `CN(C)C(CCc1ccccc1)C1CCC2(CC1)NCCc1c2[nH]c2ccccc12` (stereo not drawn) (as salt: citrate) [Compound 20, 1,1-[3-(Dimethylamino-(phenylethyl)-methyl)-pentamethylene]-3,4-dihydro-1H-2,9-diazafluorene Citrate], the melting point is 130 to 135 °C.
Regarding `Cc1ccc2[nH]c3c(c2c1)CC(C)OC31CCC(C(c2ccc(Cl)cc2)N(C)C)CC1` (stereo not drawn) [Compound 44, 3,6-Dimethyl-1,1-[3-(dimethylamino-(4-chlorophenyl)-methyl) -pentamethylene]-1,3,4,9-tetrahydropyrano[3,4-b]indole], on human μ opiate receptor, the inhibition at 1 µM worked out at 72% and the Ki was found to be 490 nM. For the same compound, the “% inhibition of the writhing reaction” value in series [1] is 48 (10) %.
`CN(C)C(c1ccc(Cl)cc1)C1CCC2(CC1)OCCc1c2[nH]c2ccccc12` (stereo not drawn) [Compound 30, 1,1-[3-(Dimethylamino-(4-chlorophenyl)-methyl)-pentamethylene]-1,3,4,9-tetrahydro-pyrano[3,4-b]indole] came in with an inhibition at 10 µM on Serotonin reuptake of 56%. Further, on human μ opiate receptor, the inhibition at 1 µM was determined as 84% and the inhibitory constant (Ki) was 170 nM. The “% inhibition of the writhing reaction” value in series [1] is 45 (10) %.
In turn, `CN(C)C(c1ccc(F)cc1)C1CCC2(CC1)OCCc1c2[nH]c2ccccc12` (stereo not drawn) [Compound 25, 1,1-[3-(Dimethylamino-(4-fluorophenyl)-methyl)-pentamethylene]-1,3,4,9-tetrahydro-pyrano[3,4-b]indole] registered an inhibition at 10 µM against Serotonin reuptake of 68%. In addition, on human μ opiate receptor, the inhibition at 1 µM was 86% and the inhibition constant Ki worked out at 350 nM.
With `CN(C)C(c1ccc(Cl)cc1)C1CCC2(CC1)NCCc1c2[nH]c2ccccc12` (stereo not drawn) [Compound 22, 1,1-[3-(4-Chlorophenyl-(dimethylamino)-methyl)-pentamethylene]-3,4-dihydro-1H-2,9-diazafluorene], the “Serotonin reuptake, % inhibition [10 μM]” value on Serotonin reuptake came to 76%. Further, the “μ opioid receptor [1 μM], % inhibition” value on human μ opiate receptor worked out at 33%.

The record behind these values is patent US8124788B2, “Spirocyclic cyclohexane compounds with analgesic activity” (Gruenenthal GmbH, priority 2006, dated 2012).
